# “Also recorded” adds a separate entry of the source. Like-named read-outs stand apart in the source and are kept apart here.
# Assays:
# TRPM7 [1] = molecular target: TRPM7 (Homo sapiens, UniProt Q96QT4); conditions: cited from earlier work
# TRPM7 [2] = molecular target: T1, TRPM7 (Rattus norvegicus, UniProt Q925B3); assay: non-selective cation (TRPM7) current, amphotericin-B perforated-patch recording in PC12^LEPRb cells; assay type: cell-based; conditions: for leptin-enhanced non-selective cation current / naltriben-induced increase of the current: effect of TRPM7 antagonist
# T1 construct: PC12 cells are oxygen-sensitive, express high level of TRPM7; endogenous in cells; host or cells: PC12^LEPRb cells (PC12 transfected with leptin receptor LEPRb; TRPM7 itself not transfected)
# Source text: FIG. 5A-5C illustrates leptin enhances TRPM7 current in leptin receptor expressing PC12 cells.
# Leptin can regulate TRPM7 channel activity. Leptin exerts its action by binding to the long form of leptin receptors (LEPRb, ObRb), which is the only functional isoform of leptin receptor. The possible effect of leptin on TRPM7 channel activity was investigated, by using LEPRb expressing adrenal pheochromocytoma PC12 (PC12^LEPRb) cells as the cell model, because PC12 cells are oxygen-sensitive, express high level of TRPM7 and have been used widely in the studies of chemoreception. Non-selective cation current was recorded using amphotericin-B perforated-patch technique in the absence of extracellular and intracellular K^+ (replaced by Cs^+) and Mg^2+, after VDCC was blocked by nifedipine and Cl^− currents were inhibited by DIDS and niflumic acid. Voltage-ramp of −100 to +100 mV elicited an outward rectifying current that resembled TRPM7 current reported in other cell types. […] The leptin-induced current was not observed in PC12 cells transfected with a control plasmid (data not shown). The present invention provides the first evidence showing activation of leptin receptor is capable of enhancing TRPM7 activity, and it supports our hypothesis that leptin may enhance CB activity through regulation of TRPM7 activity.
# Obesity is a leading cause of high cardiovascular morbidity and mortality. It is characterized by an increased leptin level, which has been implicated in increased sympathetic activity and the pathogenesis of hypertension. However, the mechanism by which leptin enhances sympathetic activity is unclear. Leptin receptors (LEPRs) are expressed in the carotid bodies, the most important arterial chemoreceptors for the cardiovascular-respiratory chemoreflex. Since leptin is known to regulate many different ion channels, we hypothesize that leptin may exert its effects through modulation of TRPM7 channel activity. To test this hypothesis, the inventors used LEPR (LEPRb) expressing pheochromocytoma (PC12^LEPRb) cells, which expresses high levels of TRPM7 channels, as the cell model. Non-selective cation channels were recorded under amphotericin-B perforated-patch techniques with K^+ replaced by Cs^+ in the presence of voltage-gated Ca^2+ channel and Cl^− channel blockers. Voltage-ramp from −100 to 100 mV activated an outward-rectifying current. Removal of extracellular divalent ions enhanced the inward current, consistent with the inward divalent ion selectivity of TRPM7.
# [3] = mice; cited from earlier work
# [4] = humans; cited from earlier work
# C57BL/6J mice [5] = assay: telemetric blood pressure in mice, leptin-induced hypertension; assay type: in vivo, mouse
# Protocol: Leptin signals in the CB to increase blood pressure. Male C57BL/6J mice, n=6 housed in a 12 hr light/dark cycle underwent telemetry implantation (Data Sciences) in the left femoral artery as we have described. […] After 4 day recovery mice were treated with vehicle (saline) regaining weight. On Day 17th of the protocol, carotid sinus nerve dissection (CSND, CB denervation) was performed bilaterally. After 1 week recovery, leptin and vehicle infusions were repeated. […] In contrast, CB denervation greatly modified cardiovascular effects of leptin. Indeed, in mice with intact carotid bodies leptin increased mean arterial pressure by 13 mm Hg during the day and by 16 mm Hg at night (FIG. 16A). […] Thus, leptin increases blood pressure acting in the CB.
# FTY720 abolishes leptin-induced hypertension. There are multiple TRPM7 inhibitors available. We used a potent TRPM7 inhibitor FTY720 for several reasons. FTY720 is a novel immunomodulator and a structural homolog of shingosine-1-phosphate (S1P) blocking S1P effects in many diseases, including atherosclerosis, cancer, asthma, autoimmune diseases and acute lung injury. First, FTY270 has already been approved by FDA for multiple sclerosis (fingolimod). […] The experiment was performed in lean (24-26 g) C57BL/6J mice (n=5). Telemetry for continuous blood pressure recording was inserted. After 5 day recovery, mice were treated with leptin for 3 days as above. The pump was removed. After 7 day recovery, leptin was reinfused as above, but FTY720 was infused SC simultaneously at 0.1 mg/day (approximately 3 mg/kg/day).
# Obesity leads to cardiovascular morbidity and mortality acting via multiple mechanisms including hypertension and obstructive sleep apnea. High levels of leptin have been associated with both conditions. The carotid bodies (CB) express leptin receptor (LepR), but the mechanism of leptin in CB is unknown. […] (CSND). In mice with intact CB, leptin increased mean arterial pressure by 13 mm Hg during the day and by 16 mm Hg at night (p=0.003 for the effect of leptin). […] Leptin receptor expression in carotid bodies of leptin receptor deficient db/db mice led to the same effect (n=6, p<0.05). […] Finally, the inventors tested the effect of a Trpm7 inhibitor on leptin-induced hypertension. The inventors performed blood pressure monitoring in male C57BL/6J mice (n=5˜9) at baseline, during leptin infusion with or without Trpm7 inhibitor, FTY720 (3 mg/kg/day, sc, n=5) for 24 hrs. […] The inventors conclude that leptin increases blood pressure acting in the CB via the Trpm7 channel.
# [6] = test system: isolated CB-CSN preparations; assay: hypoxia-induced CSN activity in isolated superfused CB-CSN preparation; set-up: species or system C57B1/6J (WT) mice; conditions: for leptin-enhanced hypoxia-induced CSN activity: effect of nonspecific TRP channel antagonist; for hypoxia-induced CSN activity: effect of leptin
# Source text: SKF and 2-APB data were pooled, *p<0.05.
# Leptin and carotid body function CBs are major peripheral O2 sensors, which initiate chemosensory inputs in the CSN to the respiratory centers via nucleus solitarius to evoke acute hyperventilation, and the rostral ventrolateral medulla presympathetic neurons to stimulate SNS activity. CB plays critical roles in the development of hypertension during chronic intermittent hypoxia (CIH); and the sympatho-excitation and destabilization of breathing during heart failure. However, the connection between CB and the obesity-associated hypertension and respiratory instability has not been clearly established. […] The effect of leptin on isolated CB-CSN preparations from C57B1/6J (WT) mice was studied.
# TRPM7 [7] = assay: Trpm7 mRNA level by qPCR in PC12^LEPRb cells; assay type: cell-based; conditions: 48 hr exposure
# Protocol: (§1) FIG. 8A-8C illustrates exposure of leptin to Leprb-expressing PC12^LEPRb cells increased Trpm7 promoter activity and gene transcription. (A) PC12^LEPRb cells transfected with either pEZX-Luc-vector (empty, no insert) or pEZX-Luc-Trpm7 (promoter insert) were exposed to 1 ng/ml leptin for 48 hr prior to measurement of luciferase activity. B and C) Gene expression and promoter methylation of Trpm7 in cells exposed to leptin or 5-aza-dC for 48 hr. Trpm7 mRNA level was quantitated by qPCR. Methylation status of CpG sites in Trpm7 promoter were determined by bisulfite sequencing. A total of 40 CpG sites per clone and 6 individual clones for each treatment group were sequenced. Each row of circles represented an individual clone. Putative TF binding sites such as STAT3 and NFkB were shown in scale in Trpm7 promoter. TSS: transcription start site. Boxed regions highlight the CpG sites showing differential methylation in cells exposed to leptin or 5-aza-dC. (p<0.05). Values were mean±SD.
# (§2) Leptin can regulate gene transcription by binding to ObRb to activate Janus kinase 2/signal transducers and activator of transcription 3 (JAK2/STAT3) as well as ERK1/2 and PI3K pathways (FIG. 7), which are known to regulate a wide variety of genes. To examine the possible regulation of Trpm7 transcription by leptin, we searched the Trpm7 promoter sequence for potential binding sites for transcription factors (TFs). […]
# rat glomus cells = conditions: cited from earlier work
# C57BL/6J mice [8] = assay: minute ventilation and hypoxic ventilatory response (HVR) in awake lean mice; assay type: in vivo, mouse
# Protocol: (§3) Leptin increases the HVR in lean mice. Minute ventilation (VE) was measured at normoxic conditions and during 3-5 min exposure to 10% O2 in awake lean male C57BL/6J mice, n=4, at baseline and during leptin administration (30 μg/day for 3 days via a subcutaneous osmotic pump). Serum leptin levels increased from 0.8±0.2 ng/ml to 33.2±1.9 ng/ml, which was similar to previously reported in DIO mice and obese humans, and then returned to the baseline. Mice decreased food intake and lost weight. Leptin increased VE at baseline as a result of an increase in the metabolic rate (FIG. 10). Leptin increased the HVR by greater than 60%.
# Trpm7 inhibition prevents effects of leptin on the HVR. […] Male C57BL/6J mice (n=2) were treated with leptin for 3 days as described above. After 5 day recovery, leptin and a TRPM7 blocker NS8593 (10 mg/kg/day) were administered subcutaneously via an osmotic pump for 3 days. Mice reduced food intake and lost weight with leptin, regardless of the TRPM7 inhibitor.
# Trpm7 promoter [9] = assay: Trpm7 promoter luciferase reporter in PC12^LEPRb cells; assay type: cell-based; conditions: leptin 1 ng/ml, 48 hr
# Protocol: as §1, §2
# Trpm7 promoter [10] = assay: Trpm7 promoter methylation by bisulfite sequencing in PC12^LEPRb cells; assay type: cell-based; conditions: leptin exposure
# Protocol: as §1, §2
# [11] = serum leptin levels during leptin administration; assay type: in vivo, mouse; conditions: leptin 30 μg/day for 3 days, subcutaneous osmotic pump
# Protocol: as §3
# [12] = NS8593 10 mg/kg/day subcutaneously via osmotic pump for 3 days with leptin, 10 mg/kg/day
# [13] = leptin infusion for 3 days, intact carotid bodies
# Chain of TRPM7 (Homo sapiens, UniProt Q96QT4) (Q96QT4 whole entry, species assumed): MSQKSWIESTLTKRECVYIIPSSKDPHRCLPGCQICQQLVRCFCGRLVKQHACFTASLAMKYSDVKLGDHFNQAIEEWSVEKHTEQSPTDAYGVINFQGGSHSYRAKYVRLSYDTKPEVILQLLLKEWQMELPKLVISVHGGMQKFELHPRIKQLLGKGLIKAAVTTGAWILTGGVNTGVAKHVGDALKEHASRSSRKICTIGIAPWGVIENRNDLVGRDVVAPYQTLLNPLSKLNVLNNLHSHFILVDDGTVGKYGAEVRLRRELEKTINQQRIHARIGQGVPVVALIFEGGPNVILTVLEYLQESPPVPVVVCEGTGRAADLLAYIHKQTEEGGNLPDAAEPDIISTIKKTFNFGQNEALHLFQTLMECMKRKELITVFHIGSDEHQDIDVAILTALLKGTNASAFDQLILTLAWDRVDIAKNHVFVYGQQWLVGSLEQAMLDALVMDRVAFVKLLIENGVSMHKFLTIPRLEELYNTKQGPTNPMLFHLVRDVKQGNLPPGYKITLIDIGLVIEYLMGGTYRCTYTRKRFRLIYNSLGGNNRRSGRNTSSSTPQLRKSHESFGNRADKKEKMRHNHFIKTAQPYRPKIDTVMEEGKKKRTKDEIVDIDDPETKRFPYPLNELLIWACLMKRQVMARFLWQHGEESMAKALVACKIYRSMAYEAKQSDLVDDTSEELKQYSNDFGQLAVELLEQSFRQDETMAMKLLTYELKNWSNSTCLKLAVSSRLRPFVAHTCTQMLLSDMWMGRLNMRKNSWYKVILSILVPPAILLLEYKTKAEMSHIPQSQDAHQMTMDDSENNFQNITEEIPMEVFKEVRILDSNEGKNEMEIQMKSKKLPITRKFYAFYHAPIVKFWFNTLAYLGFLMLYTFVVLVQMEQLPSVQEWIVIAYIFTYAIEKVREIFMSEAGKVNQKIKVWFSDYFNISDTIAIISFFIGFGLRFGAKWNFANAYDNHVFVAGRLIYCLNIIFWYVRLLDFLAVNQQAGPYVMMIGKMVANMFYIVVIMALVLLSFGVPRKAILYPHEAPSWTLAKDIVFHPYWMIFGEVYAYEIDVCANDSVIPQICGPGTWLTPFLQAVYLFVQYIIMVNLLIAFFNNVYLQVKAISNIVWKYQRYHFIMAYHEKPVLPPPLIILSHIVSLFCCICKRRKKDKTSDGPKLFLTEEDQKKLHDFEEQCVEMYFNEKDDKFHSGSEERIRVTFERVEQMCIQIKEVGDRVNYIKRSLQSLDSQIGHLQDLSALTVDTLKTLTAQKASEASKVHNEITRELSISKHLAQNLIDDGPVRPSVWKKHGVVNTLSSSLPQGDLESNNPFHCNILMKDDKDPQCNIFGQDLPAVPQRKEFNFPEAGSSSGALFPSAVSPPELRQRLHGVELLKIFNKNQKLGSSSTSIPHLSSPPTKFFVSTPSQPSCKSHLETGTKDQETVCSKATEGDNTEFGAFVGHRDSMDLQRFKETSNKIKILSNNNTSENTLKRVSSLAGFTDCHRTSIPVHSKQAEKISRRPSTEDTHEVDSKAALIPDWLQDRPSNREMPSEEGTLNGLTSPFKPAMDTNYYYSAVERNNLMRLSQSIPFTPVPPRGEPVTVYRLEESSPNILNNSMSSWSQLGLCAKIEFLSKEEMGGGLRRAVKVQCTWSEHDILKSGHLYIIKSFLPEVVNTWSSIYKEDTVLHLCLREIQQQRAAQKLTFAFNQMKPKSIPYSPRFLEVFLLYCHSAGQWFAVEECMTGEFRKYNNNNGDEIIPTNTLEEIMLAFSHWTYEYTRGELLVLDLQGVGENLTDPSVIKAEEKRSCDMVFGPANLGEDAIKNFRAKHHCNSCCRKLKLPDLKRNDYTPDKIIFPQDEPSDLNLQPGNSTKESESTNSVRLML
# T1 sequence (Q925B3 whole entry): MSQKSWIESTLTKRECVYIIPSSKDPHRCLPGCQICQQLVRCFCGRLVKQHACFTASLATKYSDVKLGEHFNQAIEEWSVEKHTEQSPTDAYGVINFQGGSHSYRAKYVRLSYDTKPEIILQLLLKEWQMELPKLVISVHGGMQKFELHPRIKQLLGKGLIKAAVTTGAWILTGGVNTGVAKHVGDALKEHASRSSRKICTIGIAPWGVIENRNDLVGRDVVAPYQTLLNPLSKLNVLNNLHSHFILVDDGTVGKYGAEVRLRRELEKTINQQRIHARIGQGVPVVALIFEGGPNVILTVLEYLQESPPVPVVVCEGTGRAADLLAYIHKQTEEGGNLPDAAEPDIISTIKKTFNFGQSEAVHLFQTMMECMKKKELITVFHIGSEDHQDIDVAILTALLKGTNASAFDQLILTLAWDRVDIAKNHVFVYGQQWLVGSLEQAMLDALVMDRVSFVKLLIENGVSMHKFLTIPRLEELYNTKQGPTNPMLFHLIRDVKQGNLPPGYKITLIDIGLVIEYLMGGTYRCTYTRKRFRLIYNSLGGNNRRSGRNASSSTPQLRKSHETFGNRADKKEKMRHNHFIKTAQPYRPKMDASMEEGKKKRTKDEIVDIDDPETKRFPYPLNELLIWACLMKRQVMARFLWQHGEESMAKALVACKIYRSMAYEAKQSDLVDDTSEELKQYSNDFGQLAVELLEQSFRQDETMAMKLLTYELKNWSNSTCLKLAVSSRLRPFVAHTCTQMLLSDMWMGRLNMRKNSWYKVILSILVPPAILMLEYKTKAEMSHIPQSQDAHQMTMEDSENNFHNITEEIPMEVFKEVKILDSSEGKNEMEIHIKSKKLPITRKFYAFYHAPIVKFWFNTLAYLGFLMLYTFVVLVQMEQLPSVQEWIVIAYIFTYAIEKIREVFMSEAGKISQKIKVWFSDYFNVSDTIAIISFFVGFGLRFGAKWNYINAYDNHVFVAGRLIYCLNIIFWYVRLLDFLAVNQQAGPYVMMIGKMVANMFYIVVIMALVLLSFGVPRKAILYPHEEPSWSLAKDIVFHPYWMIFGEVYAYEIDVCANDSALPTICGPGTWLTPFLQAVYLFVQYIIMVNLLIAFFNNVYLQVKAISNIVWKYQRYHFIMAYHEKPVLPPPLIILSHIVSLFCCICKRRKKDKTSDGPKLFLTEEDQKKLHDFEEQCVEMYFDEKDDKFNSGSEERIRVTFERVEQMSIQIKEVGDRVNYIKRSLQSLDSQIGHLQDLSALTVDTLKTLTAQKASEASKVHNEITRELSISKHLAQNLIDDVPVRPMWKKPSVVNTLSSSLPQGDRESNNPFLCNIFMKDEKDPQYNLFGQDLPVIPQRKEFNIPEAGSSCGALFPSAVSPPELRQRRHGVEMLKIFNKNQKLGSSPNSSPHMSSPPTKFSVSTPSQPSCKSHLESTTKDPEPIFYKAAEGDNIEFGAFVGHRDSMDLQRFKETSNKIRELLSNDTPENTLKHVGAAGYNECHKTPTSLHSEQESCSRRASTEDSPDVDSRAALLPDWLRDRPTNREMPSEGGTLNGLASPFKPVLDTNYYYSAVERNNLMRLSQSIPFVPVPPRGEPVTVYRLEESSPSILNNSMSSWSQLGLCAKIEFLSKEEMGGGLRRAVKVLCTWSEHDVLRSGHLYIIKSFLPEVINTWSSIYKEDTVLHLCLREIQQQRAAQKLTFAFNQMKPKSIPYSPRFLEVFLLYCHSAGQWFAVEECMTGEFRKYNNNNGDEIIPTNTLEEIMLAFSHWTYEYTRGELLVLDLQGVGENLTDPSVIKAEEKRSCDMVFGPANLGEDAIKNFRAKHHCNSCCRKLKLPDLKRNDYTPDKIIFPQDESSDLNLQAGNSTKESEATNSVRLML
compound,measurement,setting,value
Cc1ccc(C(C)C)cc1O [carvacrol],TRPM7 channel activity,TRPM7 [1],inhibited
Oc1ccc2c3c1O[C@H]1c4oc5ccccc5c4C[C@@]4(O)[C@@H](C2)N(CC2CC2)CC[C@]314 [naltriben],TRPM7 channel activity,TRPM7 [1],activated
same,outward rectifying non-selective cation (TRPM7) current,"TRPM7 [2]; effect of TRPM7 agonist (50 μM elsewhere in the source), voltage-ramp −100 to +100 mV",significant augmentation; also recorded: significant increase
"CCCCCCCCc1ccc(CCC(N)(CO)CO)cc1 [FTY720, 2-amino-2-[2-(4-octylphenyl)ethyl]propane-1,3-diol]",TRPM7 channel activity,TRPM7 [1],inhibited
same,half-life,[3],19 to 28 h
same,leptin-enhanced non-selective cation current,TRPM7 [2],significantly inhibited; also recorded: completely blocked
same,naltriben-induced increase of the current,TRPM7 [2],abolished
same,leptin-enhanced non-selective cation current,TRPM7 [2]; listed as FTY120,almost completely abolished
same,half-life,[4],170 h
same,leptin-induced hypertension,C57BL/6J mice [5]; FTY720 SC 0.1 mg/day (approximately 3 mg/kg/day) with leptin,completely abolished; also recorded: prevented
COc1ccc(CCCOC(Cn2ccnc2)c2ccc(OC)cc2)cc1 (centres unmarked) [SKF96365],leptin-enhanced hypoxia-induced CSN activity,[6],dampened; also recorded: blocked
Nc1ncn([C@H]2C[C@H](O)[C@@H](CO)O2)c(=O)n1 [5-aza-dC],Trpm7 mRNA level,TRPM7 [7],increased
"NCCOB(c1ccccc1)c1ccccc1 [2-APB, 2-aminoethoxydiphenylborane]",TRPM7 channel activity,TRPM7 [1],inhibited
same,leptin-enhanced hypoxia-induced CSN activity,[6],blocked
same,"elevation of [Ca2+]i induced by hypoxia, NaCN and FCCP",rat glomus cells,inhibited
CCCCCCCCCCCCC/C=C/[C@@H](O)[C@@H](N)CO [sphingosine],TRPM7 channel activity,TRPM7 [1],inhibited
"Cl.c1ccc2c(c1)CCC[C@H]2Nc1nc2ccccc2[nH]1 [NS8593, N-[(1R)-1,2,3,4-Tetrahydro-1-naphthalenyl]-1H-Benzimidazol-2-aminehydrochloride]",TRPM7 channel activity,TRPM7 [1],inhibited
same,leptin-enhanced non-selective cation current,TRPM7 [2],completely blocked; also recorded: almost completely abolished
same,naltriben-induced increase of the current,TRPM7 [2],abolished
same,basal ventilation,C57BL/6J mice [8]; NS8593 10 mg/kg/day subcutaneously via osmotic pump for 3 days with leptin,without any effect
same,leptin-induced hypoxic hyperventilation (VE during acute hypoxia),C57BL/6J mice [8]; [12],abolished; also recorded: prevented
same,leptin-induced increase in the HVR,C57BL/6J mice [8]; [12],abolished; also recorded: abolishing
leptin: an adipocyte-produced hormone,Trpm7 promoter luciferase activity,Trpm7 promoter [9],significantly increased
same,Trpm7 mRNA level,TRPM7 [7],increased; also recorded: significant increase
same,hypoxia-induced CSN activity,[6],significantly augmented
same,hypoxia-induced CSN activity,[6]; listed as Leptin,augments
same,methylation status of Trpm7 promoter,Trpm7 promoter [10],CpG site-specific demethylation
same,outward rectifying non-selective cation (TRPM7) current,TRPM7 [2]; effect of leptin (10-100 ng/ml elsewhere in the source),enhances; also recorded: concentration-dependent increase
same,body weight,C57BL/6J mice [8]; leptin 30 μg/day for 3 days,lost weight
same,food intake,C57BL/6J mice [8]; leptin 30 μg/day for 3 days,decreased
same,increase of the HVR,"C57BL/6J mice [8]; leptin 30 μg/day for 3 days, subcutaneous osmotic pump, 10% O2",greater than 60%
same,"hypoxic ventilatory response (HVR), in words",C57BL/6J mice [8]; leptin infusion,increased
same,minute ventilation (VE) at baseline,"C57BL/6J mice [8]; leptin infusion, normoxic",increased
same,serum leptin levels,[11],33.2 ± 1.9 ng/mL
same,heart rate,C57BL/6J mice [5]; leptin,increases
same,"mean arterial pressure, in words",C57BL/6J mice [5]; leptin,increases
same,increase of mean arterial pressure at night,C57BL/6J mice [5]; [13],16 mm Hg
same,increase of mean arterial pressure during the day,C57BL/6J mice [5]; [13],13 mm Hg

# Reference: patent US20200054581A1, “APPLICATION OF TRPM7 INHIBITORS TO TREAT SLEEP APNEA AND HYPERTENSION IN OBESITY” (THE JOHNS HOPKINS UNIVERSITY, priority 2017, published 2020)
